Structures can show the parent of a compound that is named as a salt.
What was measured:
[1] = system: Behavior change due to the spinal intrathecal injection of ferrous chloride in mice; assay: Behavior change due to spinal intrathecal injection of ferrous chloride in mice; type: in vivo, Slc:ICR mouse; conditions: 100 mg/kg p.o., 30 min before i.t. ferrous chloride; for Average score, 100 mg/kg dose: scale 0 (normal) to 5 (death); for Inhibition rate (%): vs saline
Method: In male Slc : ICR mouse of 5 weeks age 10 mice per group were used. […] The evaluation point of behavior change was scored according to the following criterion.
The inhibition rate was shown based on the evaluation point under the above criterion. The test compound was orally administered 30 minutes before the i.t. injection of ferrous chloride.

[2] = system: formation of HHT (12-hydroxyheptadeca-5,8,10-trienoic acid) in rat's platelet; assay: Inhibitory action for the formation of HHT in rat's platelet; type: cell-based; conditions: rat platelet rich plasma, read-out: Inhibition rate (%) of HHT formation; for inhibition at 100 µM: 10^-4 M; for inhibition at 10 µM: 10^-5 M; for inhibition at 1 µM: 10^-6 M
Method: Eight ml of blood was gathered from the abdominal aorta of a rat (JcI : Wistar, male, 12-15 weeks age) subjected to abdominal incision under anesthesia by the use of 3.2 % sodium citrate (1 volume of sodium citrate solution to 9 volume of whole blood). The blood was centrifuged at 800 rpm for 10 minutes at room temperature to gather PRP (platelet rich plasma), and the residual blood was further centrifuged at 3000 rpm for 10 minutes to gather PPP (platelet poor plasma). The platelet number in PRP was measured and the PRP was adjusted by diluting with PPP so that the concentration of platelet was one million/μl. To 0.25 ml of the PRP, 125 μg of arachidonic acid and the test compound (the final concentration of 100 μM, 10 μM, 1 μM and 0.1 μM) were added, and the mixture was incubated at 37° C. for 15 minutes. After the reaction, 1.1 ml of ethanol was added, well shaken and centrifuged at 2000 rpm for 10 minutes to separate the supernatant. To 1 ml of the supernatant 1 ml of water was added and subjected to high performance liquid chromatography to determine HHT. The absorption at 240 nm due to HHT was measured by an ultraviolet absorption monitor. […]

5-lipoxygenase = biological target: T1, 5-lipoxygenase (Rattus norvegicus, UniProt P12527); assay: Inhibitory action on 5-lipoxygenase (5-HETE formation in RBL-1 cells); type: cell-based; conditions: read-out: Inhibition rate (%) of 5-HETE formation; for inhibition at 1 µM: 10^-6 M; for inhibition at 0.1 µM: 10^-7 M; for inhibition at 0.01 µM: 10^-8 M
T1 construct: endogenous in cells; host or cells: RBL-1 (rat basophilic leukemia cells)
T1 sequence (P12527 1-673): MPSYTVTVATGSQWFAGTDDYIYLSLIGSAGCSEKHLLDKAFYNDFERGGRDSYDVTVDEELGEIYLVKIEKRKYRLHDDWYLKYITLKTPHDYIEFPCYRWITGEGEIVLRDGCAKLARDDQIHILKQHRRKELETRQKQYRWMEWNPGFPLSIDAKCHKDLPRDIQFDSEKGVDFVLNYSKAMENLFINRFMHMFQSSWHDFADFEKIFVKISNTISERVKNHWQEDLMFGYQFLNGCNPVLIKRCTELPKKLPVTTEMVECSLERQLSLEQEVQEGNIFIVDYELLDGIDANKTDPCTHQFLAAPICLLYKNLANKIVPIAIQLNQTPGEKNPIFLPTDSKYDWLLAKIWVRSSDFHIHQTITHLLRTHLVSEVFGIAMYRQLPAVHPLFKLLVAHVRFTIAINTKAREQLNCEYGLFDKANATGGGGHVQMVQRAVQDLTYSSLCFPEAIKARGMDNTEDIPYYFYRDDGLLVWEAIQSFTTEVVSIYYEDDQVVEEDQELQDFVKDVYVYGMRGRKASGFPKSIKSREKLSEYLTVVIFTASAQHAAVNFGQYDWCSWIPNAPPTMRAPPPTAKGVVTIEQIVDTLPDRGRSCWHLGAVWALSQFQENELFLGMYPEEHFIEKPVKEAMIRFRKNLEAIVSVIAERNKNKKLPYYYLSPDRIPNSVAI
Method: RBL-1 cells (rat basophilic leukemia cells) of 10^7 were suspended in 0.9 ml of MCM (mast cell medium). […] The mixture was incubated at 37° C. for 5 minutes. Then, 0.1 ml of MCM containing 50 μg of arachidonic acid and 10 μg of calcium ionophore A-23187 was added and further the mixture was incubated at 37° C. for 15 minutes. After the reaction, 1 ml of ethanol was added, well shaken and subjected to high performance liquid chromatography to determine 5-HETE. The absorption at 240 nm due to 5-HETE was measured by an ultraviolet abosorption monitor. The inhibition rate of 5-HETE formation is represented by (1-b/a)×100, wherein a is the peak height or area in the absence of the compound (I) and b is that in the presence of the compound (I).

[3] = system: lipoperoxide formation in rat's brain homogenate; assay: Inhibitory action for lipoperoxide formation in rat's brain homogenate (thiobarbituric acid method); type: biochemical; conditions: read-out: IC50 (M) × 10^-7
Method: According to the method by Suno et al. (Japan J. Pharmacol., 35, 196(1984) , the concentration of the compound necessary for 50% inhibition of lipoperoxide formation in rat's brain homogenate was determined by examining the lipoperoxide formation using the thiobarbituric acid method. The results obtained are shown in Table 3.

[4] = biological target: T2, Leukotriene D4 (LTD4) receptor (Cavia porcellus, UniProt Q2NNR5); assay: Leukotriene D4 (LTD4) receptor antagonism ([3H]LTD4, guinea pigs' lung membrane fraction); type: binding, guinea pig; conditions: read-out: Inhibition rate (%) LTD4 receptor; for inhibition at 1 µM: 10^-6 M; for inhibition at 0.1 µM: 10^-7 M; for inhibition at 0.01 µM: 10^-8 M
T2 construct: guinea pigs' lung membrane fraction; from tissue; host or cells: guinea pig lung membrane fraction
T2 sequence (Q2NNR5 1-340): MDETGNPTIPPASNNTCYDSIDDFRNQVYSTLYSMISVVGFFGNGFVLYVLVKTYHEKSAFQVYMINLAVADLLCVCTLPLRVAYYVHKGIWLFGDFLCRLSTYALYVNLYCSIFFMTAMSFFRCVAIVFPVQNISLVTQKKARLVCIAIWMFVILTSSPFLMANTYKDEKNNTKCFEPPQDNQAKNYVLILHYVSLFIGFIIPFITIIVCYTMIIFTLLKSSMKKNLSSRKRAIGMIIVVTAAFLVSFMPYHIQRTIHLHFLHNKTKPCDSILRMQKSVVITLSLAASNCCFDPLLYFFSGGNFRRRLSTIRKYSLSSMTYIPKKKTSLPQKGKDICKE
Method: According to the method by S. S. Pong , and R. N. DeHaven (Proceedings of the National Academy of Sciences of the United States of America, 80, 7415-7419 (1983) , the leukotriene D4 (LTD4) receptor antagonism was measured by using [^3 H]LTD4 and guinea pigs' lung membrane fraction. The results are shown in Table 5.

| inhibition at 1 µM (5-lipoxygenase) [%] | inhibition at 0.1 µM (5-lipoxygenase) [%] | inhibition at 0.01 µM (5-lipoxygenase) [%] | IC50 [3] [M] | SMILES | inhibition at 100 µM [2] [%] | inhibition at 10 µM [2] [%] | inhibition at 1 µM [2] [%] | also measured |
| --- | --- | --- | --- | --- | --- | --- | --- | --- |
| 100 | 56 | 14 |  | COc1ccc(C=Cc2nc3c(s2)NCCCC3)cc1 [Example 2, 2-(4-Methoxystyryl)-5,6,7,8-tetrahydro-4H-thiazolo[5,4-b]azepine] | 100 | 58 | 16 | Average score, 100 mg/kg dose [1]: 1.2; Inhibition rate (%) [1]: 74.5% |
|  |  |  |  | C(=Cc1nc2c(s1)NCCCC2)c1ccccc1 [Example 3, 2-Styryl-5,6,7,8-tetrahydro-4H-thiazolo[5,4-b]azepine] | 100 | 83 | 22 |  |
|  |  |  |  | COc1ccc(-c2nc3c(s2)NCCCC3)cc1 [Example 5, 2-(4-Methoxyphenyl)-5,6,7,8-tetrahydro-4H-thiazolo[5,4-b]azepine hydrochloride] |  |  |  | Average score, 100 mg/kg dose [1]: 0.9; Inhibition rate (%) [1]: 82.0% |
|  |  |  | 7e-07 | Cc1ccc(C=Cc2nc3c(s2)NCCCC3)cc1 [Example 6, 2-(4-Methylstyryl)-5,6,7,8-tetrahydro-4H-thiazolo[5,4-b]-azepine] |  |  |  | inhibition at 1 µM [4]: 100%; inhibition at 0.1 µM [4]: 94.3%; inhibition at 0.01 µM [4]: 64.4% |
|  |  |  | 8e-07 | CCOc1ccc(C=Cc2nc3c(s2)NCCCC3)cc1 [Example 7, 2-(4-Ethoxystyryl)-5,6,7,8-tetrahydro-4H-thiazolo[5,4-b]azepine] |  |  |  |  |
|  |  |  | 7e-07 | CC(C)c1ccc(C=Cc2nc3c(s2)NCCCC3)cc1 [Example 8, 2-(4-Isopropylstyryl)-5,6,7,8-tetrahydro-4H-thiazolo[5,4-b]azepine] |  |  |  | inhibition at 1 µM [4]: 94.6%; inhibition at 0.1 µM [4]: 92.4%; inhibition at 0.01 µM [4]: 54.8% |
| 100 | 79 | 12 | 7e-07 | COc1ccc(C=CC=Cc2nc3c(s2)NCCCC3)cc1 [Example 9, 2-[4-(4-Methoxyphenyl)butadienyl]-5,6,7,8-tetrahydro-4H-thiazolo [5,4-b]azepine] |  |  |  |  |
|  |  |  | 6e-07 | COc1ccccc1C=Cc1nc2c(s1)NCCCC2 [Example 12, 2-(2-Methoxystyryl)-5,6,7,8-tetrahydro-4H-thiazolo [5,4-b)azepine oxalate] |  |  |  |  |
|  |  |  |  | C(=Cc1nc2c(s1)NCCCC2)c1ccc2c(c1)OCO2 [Example 13, 2-(3,4-Methylenedioxystyryl)-5,6,7,8-tetrahydro-4H-thiazolo[5,4-b]azepine hydrochloride] |  |  |  | inhibition at 1 µM [4]: 100%; inhibition at 0.1 µM [4]: 92.5%; inhibition at 0.01 µM [4]: 61% |
|  |  |  |  | COc1ccc(C=Cc2nc3c(s2)NCCCC3)cc1OC.Cl [Example 16, 2-(3,4-Dimethoxystyryl)-5,6,7,8-tetrahydro-4H-thiazolo[5,4-b]azepine hydrochloride] |  |  |  | Average score, 100 mg/kg dose [1]: 0.3; Inhibition rate (%) [1]: 94.0% |
| 100 | 44 | 2 |  | Clc1ccc(C=Cc2nc3c(s2)NCCCC3)cc1Cl [Example 20, 2-(3,4-Dichlorostyryl)-5,6,7,8-tetrahydro-4H-thiazolo[5,4-b]azepine] | 96 | 43 | 18 |  |
|  |  |  | 7e-07 | C(C=Cc1nc2c(s1)NCCCC2)=Cc1ccccc1 [Example 21, 2-(4-Phenylbutadienyl)-5,6,7,8-tetrahydro-4H-thiazolo[5,4-b]azepine] |  |  |  | Average score, 100 mg/kg dose [1]: 1.7; Inhibition rate (%) [1]: 63.0% |
| 100 | 49 | 4 |  | O=[N+]([O-])c1ccc(C=Cc2nc3c(s2)NCCCC3)cc1 [Example 22, 2-(4-Nitrostyryl)-5,6,7,8-tetrahydro-4H-thiazolo-[5,4-b]azepine] |  |  |  |  |
|  |  |  | 1.2e-06 | Fc1ccccc1-c1nc2c(s1)NCCCC2 [Example 23, 2-(2-Fluorophenyl)-5,6,7,8-tetrahydro-4H-thiazolo [5,4-b]azepine] |  |  |  |  |
| 93 | 53 | 26 |  | O=[N+]([O-])c1ccc(-c2nc3c(s2)NCCCC3)cc1 [Example 24, 2-(4-Nitrophenyl)-5,6,7,8-tetrahydro-4H-thiazolo[5,4-b]azepine] |  |  |  |  |
|  |  |  | 1.2e-06 | c1ccc(-c2nc3c(s2)NCCCC3)cc1 [Example 26, 2-Phenyl-5,6,7,8-tetrahydro-4H-thiazolo[5,4-b]azepine] | 100 | 63 | 22 |  |
| 95 | 56 | 9 | 7e-07 | C(=Cc1nc2c(s1)NCCCC2)c1ccccc1.O=C(O)C(=O)O [Example 28, 2-Styryl-5,6,7,8-tetrahydro-4H-thiazolo[5,4-b]azepine oxalate] |  |  |  | Average score, 100 mg/kg dose [1]: 1.1; Inhibition rate (%) [1]: 76.6% |
|  |  |  |  | c1ccc2cc(-c3nc4c(s3)NCCCC4)ccc2c1 [Example 30, 2-(2-Naphthyl)-5,6,7,8-tetrahydro-4H-thiazolo [5,4-b]azepine] |  |  |  | inhibition at 1 µM [4]: 100%; inhibition at 0.1 µM [4]: 98.8%; inhibition at 0.01 µM [4]: 76% |
|  |  |  |  | c1csc(-c2nc3c(s2)NCCCC3)c1 [Example 31, 2-(2-Thienyl)-5,6,7,8-tetrahydro-4H-thiazolo[5,4-b]azepine] | 100 | 80 | 19 |  |
|  |  |  |  | CS(=O)(=O)N1CCCCc2nc(-c3ccncc3)sc21 [Example 41, 4-Methanesulfonyl-2-(4-pyridyl)-5,6,7,8-tetrahydro-4H-thiazolo[5,4-b]azepin] | 87 | 63 | 23 |  |
